Drawing on patent US8435987B2, “Pyrazolo-pyridinone and pyrazolo-pyrazinone compounds as P38 modulators and methods of use thereof” (Amgen Inc., priority 2007, dated 2013), this text covers IC50 for two compounds.

For one test, the target named is recombinant human p38α (Homo sapiens, UniProt Q16539). Kind of test: Purified and activated recombinant human p38α HTRF assay. In kind it is biochemical. Particulars: 1 nM p38α, 50 μM ATP, 100 nM GST-ATF2-Avitag, read-out: p3a IC550. As to the method:
Purified and Activated Recombinant Human p38α Assay
• Kinase Reaction Buffer: Kinase reaction buffer for p38α HTRF assays consists of 50 mM Tris-pH 7.5, 5 mM MgCl2, 0.1 mg/mL BSA, 100 μM Na3VO4 and 0.5 mM DTT. • HTRF Detection Buffer: HTRF detection buffer contains 100 mM HEPES-pH 7.5, 100 mM NaCl, 0.1% BSA, 0.05% Tween-20, and 10 mM EDTA. • Serial Dilution of Compounds: Compounds were dissolved in 100% DMSO and serially diluted (3 fold, 10 point) in a polypropylene 96-well microtiter plate (drug plate). The final starting concentration of compounds in the p38a enzymatic assays was 1 μM. Columns 6 and 12 (HI controls and LO controls respectively) in the drug plate were reserved as controls and contained only DMSO. • Kinase Reaction: The p38α kinase reactions were carried out in a polypropylene 96-well black round bottom assay plate in total volume of 30 μL kinase reaction buffer. Appropriate concentration of purified and activated enzyme (recombinant human) was mixed with indicated concentration of ATP and 100 nM GST-ATF2-Avitag, in the presence or absence (HI control) of Compound. See table below for actual concentrations. In the absence of substrate, the background was measured as LO control. The reaction was allowed to incubate for 1 hour at RT. • Assay Reagent Concentrations: The final reagent concentrations were 1 nM p38α and 50 μM ATP. […] After 60 minutes incubation at room temperature, the assay plate was read in a Discovery Plate Reader. The wells were excited with coherent 320 nm light and the ratio of delayed ([…] post excitation) emissions at […] (native europium fluorescence) and 665 nm (europium fluorescence transferred to allophycocyanin—an index of substrate phosphorylation) was determined (Park et al, 1999). • Data Analysis: The proportion of substrate phosphorylated in the kinase reaction in the presence of compound compared with that phosphorylated in the presence of DMSO vehicle alone (HI control) was calculated using the formula: % control (POC)=(compound−average LO)/(average HI−average LO)*100. Data (consisting of POC and inhibitor concentration in μM) was fitted to a 4-parameter equation (y=A+((B−A)/(1+((x/C)AD))), where A is the minimum y (POC) value, B is the maximum y (POC), C is the x (compound concentration) at the point of inflection and D is the slope factor, using a Levenburg-Marquardt non-linear regression algorithm.
The inhibition constant (Ki) of the inhibitor was estimated from the IC50 (compound concentration at the point of inflection C) using the Cheng-Prussof equation: Ki=IC50/(1+S/Km), where S is the ATP substrate concentration, and Km is the Michaelis constant for ATP as determined experimentally. All results were expressed as the mean± the standard error of the mean. Data acquisition and non-linear regression algorithms were performed using Activity Base v5.2 and XL-fit software v4.1 respectively. All data was archived using Activity Base v5.2 software.

The subject of test [1] is production of IL-1β, IL-6, and TNF-α by PBMC activated with bacterial lipopolysaccharide (LPS). Kind of test: Lipopolysaccharide-activated PBMC cytokine production assay. To be noted: LPS 100 ng/mL, 18 hours. Type of test: cell-based. As for the experimental part: Lipopolysaccharide-Activated PBMC Cytokine Production Assay
Test compounds were evaluated in vitro for the ability to inhibit the production of IL-1β, IL-6, and TNF-α by PBMC activated with bacterial lipopolysaccharide (LPS). Fresh leukocytes were obtained from a local blood bank, and peripheral blood mononuclear cells (PBMCs) were isolated by density gradient centrifugation on Ficol-Paque Plus (Pharmacia).
Preparation of Test Compound Stock Solutions
All reagents were prepared in RPMI 1640+10% v/v human AB serum+1×Pens/Strep/Glu (assay medium). Test compounds were dissolved in 100% DMSO and serially diluted in 96-well polypropylene round bottom micro titer plates (drug plate). Serial dilutions were then diluted 1:250 into assay medium to a 4× working concentration. […]
LPS was prepared to a 4× concentration in assay medium. […] After 18 hours culture supernatants were removed and IL-1β, IL-6, and TNF-α presence in the supernatants was quantified using MSD ECL based technology.
20 μL of culture supernatant were added to MSD plates, and incubated for one hour at room temperature. 20 μL of detection antibody diluted in antibody diluent (1 μg/mL), and 110 μL of 2× Read Buffer P was added, and incubated for one hour at RT. Electrochemiluminescence was measured using the SECTOR HTS Imager (MSD, Gaithersburg, Md.). […]

Sequence of recombinant human p38α (Q16539 whole entry): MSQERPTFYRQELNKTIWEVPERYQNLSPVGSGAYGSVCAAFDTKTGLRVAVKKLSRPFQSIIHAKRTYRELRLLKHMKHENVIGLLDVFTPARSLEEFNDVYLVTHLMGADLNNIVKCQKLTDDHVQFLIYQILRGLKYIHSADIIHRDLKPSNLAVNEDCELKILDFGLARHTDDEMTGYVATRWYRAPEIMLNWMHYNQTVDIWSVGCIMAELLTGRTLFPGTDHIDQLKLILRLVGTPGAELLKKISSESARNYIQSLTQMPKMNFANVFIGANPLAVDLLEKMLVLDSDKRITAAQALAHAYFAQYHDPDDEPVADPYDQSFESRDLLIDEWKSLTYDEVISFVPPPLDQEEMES

On to `Cc1ccc2c(NC3CC3)noc2c1-c1cc2cnn(-c3c(F)cccc3F)c2n(C)c1=O` [Example 1, 5-(3-(cyclopropylamino)-6-methylbenzo[d]isoxazol-7-yl)-1-(2,6-difluorophenyl)-7-methyl-1H-pyrazolo[3,4-b]pyridin-6(7H)-one], for which the IC50 is 8.1 nM at recombinant human p38α and at most 100 nM in test [1].

Consider `CNc1noc2c(-c3cc4cnn(-c5c(F)cccc5F)c4n(C)c3=O)c(C)ccc12` [Example 5, 1-(2,6-difluorophenyl)-7-methyl-5-(6-methyl-3-(methylamino)-1,2-benzisoxazol-7-yl)-1,7-dihydro-6H-pyrazolo[3,4-b]pyridin-6-one], for which the IC50 at recombinant human p38α is 6.7 nM; in test [1], at most 100 nM.
